Data as given in US20250171438A1 (Agios Pharmaceuticals, Inc., priority 2022, published 2025).

Target: T1, human PAH with the R408W mutation (Homo sapiens, UniProt P00439, R408W)
T1 construct: expressed in transfected cells
T1 sequence (P00439 1-452 R408W): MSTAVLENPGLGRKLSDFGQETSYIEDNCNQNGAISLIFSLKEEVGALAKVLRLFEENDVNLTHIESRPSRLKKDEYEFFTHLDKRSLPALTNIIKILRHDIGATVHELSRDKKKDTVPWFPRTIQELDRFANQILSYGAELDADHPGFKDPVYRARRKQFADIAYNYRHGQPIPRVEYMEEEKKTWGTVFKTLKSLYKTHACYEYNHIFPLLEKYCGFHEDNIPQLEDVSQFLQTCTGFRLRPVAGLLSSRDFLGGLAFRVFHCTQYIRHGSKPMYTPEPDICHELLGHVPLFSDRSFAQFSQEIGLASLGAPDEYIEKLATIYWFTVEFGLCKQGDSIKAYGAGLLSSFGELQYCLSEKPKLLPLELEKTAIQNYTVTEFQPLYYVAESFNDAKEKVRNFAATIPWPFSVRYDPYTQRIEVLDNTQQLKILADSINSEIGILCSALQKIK
Assay: Cell Based Phenylalanine Flux Assay
Conditions: A375 cells expressing human R408W PAH; 24 hrs with compound; 13C-Tyrosine by LC-MS; average where tested multiple times; read-out: AC50

Row | AC50 | SMILES
1 | 1 to 5 µM | O=C(CCc1nccs1)N1CCc2[nH]cnc2C1c1nc2ccc(Br)cc2s1 (stereo not drawn)
2 | 0.5 to 1 µM | O=C(c1cnc(C2CCC(F)(F)CC2)s1)N1CCc2[nH]cnc2C1c1nc2ccccc2s1 (stereo not drawn)
3 | > 5 µM | CC(C)(O)c1cc(C(=O)N2CCc3[nH]cnc3C2c2nc3ccccc3s2)no1 (stereo not drawn) [listing 1 of 2 here]
4 | > 5 µM | CC(C)(O)c1nc(C(=O)N2CCc3[nH]cnc3C2c2nc3c(F)cccc3s2)no1 (stereo not drawn) [listing 1 of 2 here]
5 | > 5 µM | CC(C)(O)c1cc(C(=O)N2CCc3[nH]cnc3C2c2nc3c(F)cccc3s2)no1 (stereo not drawn) [listing 1 of 2 here]
6 | > 5 µM | CC(C)(O)c1cc(C(=O)N2CCc3[nH]cnc3C2c2nc3c(F)cccc3s2)ns1 (stereo not drawn) [listing 1 of 2 here]
7 | 1 to 5 µM | Cn1nc(C(F)(F)F)nc1C(=O)N1CCc2[nH]cnc2C1c1nc2ccccc2s1 (stereo not drawn)
8 | > 5 µM | Cc1nc(C(=O)N2CCc3[nH]cnc3C2c2nc3c(F)cccc3s2)n(C)n1 (stereo not drawn) [listing 1 of 2 here]
9 | > 5 µM | Cc1nc(C(=O)N2CCc3[nH]cnc3C2c2nc3ccccc3s2)n(C)n1 (stereo not drawn) [listing 1 of 2 here]
10 | > 5 µM | Cn1nc(C2CC2)nc1C(=O)N1CCc2[nH]cnc2C1c1nc2c(F)cccc2s1 (stereo not drawn) [listing 1 of 2 here]
11 | > 5 µM | CC(C)(O)c1cc(C(=O)N2CCc3[nH]cnc3C2c2nc3ccccc3s2)on1 (stereo not drawn) [listing 1 of 2 here]
12 | > 5 µM | CC(C)(O)c1cc(C(=O)N2CCc3[nH]cnc3C2c2nc3ccccc3s2)sn1 (stereo not drawn)
13 | > 5 µM | CC(C)(O)c1noc(C(=O)N2CCc3[nH]cnc3C2c2nc3ccccc3s2)n1 (stereo not drawn) [listing 1 of 2 here]
14 | > 5 µM | CC(C)(O)c1nsc(C(=O)N2CCc3[nH]cnc3C2c2nc3c(F)cccc3s2)n1 (stereo not drawn) [listing 1 of 2 here]
15 | > 5 µM | CC(C)(O)c1cc(C(=O)N2CCc3[nH]cnc3C2c2nc3c(F)cccc3s2)sn1 (stereo not drawn) [listing 1 of 2 here]
16 | > 5 µM | CC(C)(O)c1noc(C(=O)N2CCc3[nH]cnc3C2c2nc3c(F)cccc3s2)n1 (stereo not drawn) [listing 1 of 2 here]
17 | > 5 µM | Cc1cccc2sc(C3c4nc[nH]c4CCN3C(=O)c3cnn(C)c3Cl)nc12 (stereo not drawn) [listing 1 of 2 here]
18 | > 5 µM | Cn1ccc(C(=O)N2CCc3[nH]cnc3C2c2nc3c(F)cccc3s2)n1 (stereo not drawn) [listing 1 of 2 here]
19 | > 5 µM | O=C(c1cn[nH]c1)N1CCc2nc[nH]c2C1c1nc2c(F)cccc2s1 (stereo not drawn) [listing 1 of 2 here]
20 | > 5 µM | O=C(c1ccn[nH]1)N1CCc2[nH]cnc2C1c1nc2c(F)cccc2s1 (stereo not drawn)
21 | > 5 µM | Cc1nc(N2CCN(C)CC2)oc1C(=O)N1CCc2[nH]cnc2C1c1nc2c(F)cccc2s1 (stereo not drawn) [listing 1 of 2 here]

Row | AC50 | SMILES
22 | > 5 µM | Cc1nc(N2CCOCC2)oc1C(=O)N1CCc2[nH]cnc2C1c1nc2c(F)cccc2s1 (stereo not drawn) [listing 1 of 2 here]
23 | > 5 µM | CNC(C)(C)c1nc(C)c(C(=O)N2CCc3[nH]cnc3C2c2nc3c(F)cccc3s2)o1 (stereo not drawn) [listing 1 of 2 here]
24 | 1 to 5 µM | CC(C)(O)c1cc(C(=O)N2CCc3[nH]cnc3C2c2nc3ccccc3s2)no1 (stereo not drawn) [listing 2 of 2 here]
25 | 1 to 5 µM | CC(C)(O)c1nc(C(=O)N2CCc3[nH]cnc3C2c2nc3ccccc3s2)no1 (stereo not drawn)
26 | 1 to 5 µM | CC(C)(O)c1cc(C(=O)N2CCc3[nH]cnc3C2c2nc3c(F)cccc3s2)no1 (stereo not drawn) [listing 2 of 2 here]
27 | 1 to 5 µM | CC(C)(O)c1nc(C(=O)N2CCc3[nH]cnc3C2c2nc3c(F)cccc3s2)no1 (stereo not drawn) [listing 2 of 2 here]
28 | 1 to 5 µM | CC(C)(O)c1cc(C(=O)N2CCc3[nH]cnc3C2c2nc3c(F)cccc3s2)ns1 (stereo not drawn) [listing 2 of 2 here]
29 | 1 to 5 µM | Cn1ccc(C(=O)N2CCc3[nH]cnc3C2c2nc3ccccc3s2)n1 (stereo not drawn)
30 | 1 to 5 µM | Cc1nc(C(=O)N2CCc3[nH]cnc3C2c2nc3ccccc3s2)n(C)n1 (stereo not drawn) [listing 2 of 2 here]
31 | 1 to 5 µM | Cc1nc(C(=O)N2CCc3[nH]cnc3C2c2nc3c(F)cccc3s2)n(C)n1 (stereo not drawn) [listing 2 of 2 here]
32 | 1 to 5 µM | O=C(c1cnco1)N1CCc2[nH]cnc2C1c1nc2c(C(F)(F)F)cccc2s1 (stereo not drawn)
33 | 1 to 5 µM | O=C(c1oc(C2CCN2)nc1C(F)F)N1CCc2[nH]cnc2C1c1nc2c(F)cccc2s1 (stereo not drawn)
34 | > 5 µM | Cc1nc(C2CCN2)oc1C(=O)N1CCc2[nH]cnc2C1c1nc2c(F)cccc2s1 (stereo not drawn)
35 | 1 to 5 µM | Cn1nc(C(F)F)nc1C(=O)N1CCc2[nH]cnc2C1c1nc2c(F)cccc2s1 (stereo not drawn)
36 | 1 to 5 µM | Cn1nc(C2CC2)nc1C(=O)N1CCc2[nH]cnc2C1c1nc2ccccc2s1 (stereo not drawn)
37 | 1 to 5 µM | Cn1nc(C2CC2)nc1C(=O)N1CCc2[nH]cnc2C1c1nc2c(F)cccc2s1 (stereo not drawn) [listing 2 of 2 here]
38 | 1 to 5 µM | Cn1nc(C2CC2)cc1C(=O)N1CCc2[nH]cnc2C1c1nc2c(F)cccc2s1 (stereo not drawn)
39 | 1 to 5 µM | CC(C)(O)c1noc(C(=O)N2CCc3[nH]cnc3C2c2nc3ccccc3s2)n1 (stereo not drawn) [listing 2 of 2 here]
40 | 1 to 5 µM | CC(C)(O)c1cc(C(=O)N2CCc3[nH]cnc3C2c2nc3ccccc3s2)on1 (stereo not drawn) [listing 2 of 2 here]
41 | 1 to 5 µM | CC(C)(O)c1noc(C(=O)N2CCc3[nH]cnc3C2c2nc3c(F)cccc3s2)n1 (stereo not drawn) [listing 2 of 2 here]
42 | 1 to 5 µM | CC(C)(O)c1cc(C(=O)N2CCc3[nH]cnc3C2c2nc3c(F)cccc3s2)sn1 (stereo not drawn) [listing 2 of 2 here]

Row | AC50 | SMILES
43 | 1 to 5 µM | CC(C)(O)c1nsc(C(=O)N2CCc3[nH]cnc3C2c2nc3c(F)cccc3s2)n1 (stereo not drawn) [listing 2 of 2 here]
44 | 1 to 5 µM | Cc1nnc(C(=O)N2CCc3[nH]cnc3C2c2nc3c(F)cccc3s2)n1C (stereo not drawn)
45 | 1 to 5 µM | Cn1ncc(C(=O)N2CCc3[nH]cnc3C2c2nc3c(C(F)(F)F)cccc3s2)c1C(F)F (stereo not drawn)
46 | 1 to 5 µM | Cn1ncc(C(=O)N2CCc3[nH]cnc3C2c2nc3c(C(F)(F)F)cccc3s2)c1Cl (stereo not drawn)
47 | 1 to 5 µM | Cc1cccc2sc(C3c4nc[nH]c4CCN3C(=O)c3cnn(C)c3Cl)nc12 (stereo not drawn) [listing 2 of 2 here]
48 | 1 to 5 µM | Cn1ncnc1C(=O)N1CCc2[nH]cnc2C1c1nc2c(F)cccc2s1 (stereo not drawn)
49 | 1 to 5 µM | Cn1ccc(C(=O)N2CCc3[nH]cnc3C2c2nc3c(F)cccc3s2)n1 (stereo not drawn) [listing 2 of 2 here]
50 | 1 to 5 µM | O=C(c1cn[nH]c1)N1CCc2nc[nH]c2C1c1nc2c(F)cccc2s1 (stereo not drawn) [listing 2 of 2 here]
51 | 1 to 5 µM | Cc1nc(N2CCN(C)CC2)oc1C(=O)N1CCc2[nH]cnc2C1c1nc2c(F)cccc2s1 (stereo not drawn) [listing 2 of 2 here]
52 | 1 to 5 µM | Cc1nc(N2CCOCC2)oc1C(=O)N1CCc2[nH]cnc2C1c1nc2c(F)cccc2s1 (stereo not drawn) [listing 2 of 2 here]
53 | 1 to 5 µM | Cn1nc(N)cc1C(=O)N1CCc2[nH]cnc2C1c1nc2ccccc2s1 (stereo not drawn)
54 | 1 to 5 µM | CNC(C)(C)c1nc(C)c(C(=O)N2CCc3[nH]cnc3C2c2nc3c(F)cccc3s2)o1 (stereo not drawn) [listing 2 of 2 here]
55 | > 5 µM | Cc1nnc(C(=O)N2CC(C)c3[nH]cnc3C2c2nc3ccccc3s2)o1 (stereo not drawn) [listing 1 of 3 here]
56 | > 5 µM | CC1CN(C(=O)c2nnc(C(C)(C)O)o2)C(c2nc3ccccc3s2)c2nc[nH]c21 (stereo not drawn) [listing 1 of 4 here]
57 | > 5 µM | Cc1nc(C(C)(C)O)oc1C(=O)N1CC(C)c2[nH]cnc2C1c1nc2c(F)cccc2s1 (stereo not drawn) [listing 1 of 4 here]
58 | 1 to 5 µM | CC1CN(C(=O)c2cnc(N3CCOCC3)o2)C(c2nc3ccccc3s2)c2nc[nH]c21 (stereo not drawn) [listing 1 of 4 here]
59 | > 5 µM | Cc1nc(-c2ccccn2)oc1C(=O)N1CC(C)c2[nH]cnc2C1c1nc2ccccc2s1 (stereo not drawn) [listing 1 of 3 here]
60 | > 5 µM | CC1CN(C(=O)c2cnco2)C(c2nc3c(F)cccc3s2)c2nc[nH]c21 (stereo not drawn) [listing 1 of 4 here]
61 | > 5 µM | CC1CN(C(=O)c2cnn3cc(CN(C)C)ccc23)C(c2nc3ccccc3s2)c2nc[nH]c21 (stereo not drawn) [listing 1 of 3 here]
62 | > 5 µM | Cc1nnc(C(=O)N2CC(C)c3[nH]cnc3C2c2nc3ccccc3s2)o1 (stereo not drawn) [listing 2 of 3 here]
63 | > 5 µM | CC1CN(C(=O)c2nnc(C(C)(C)O)o2)C(c2nc3ccccc3s2)c2nc[nH]c21 (stereo not drawn) [listing 2 of 4 here]

Row | AC50 | SMILES
64 | > 5 µM | Cc1nc(C(C)(C)O)oc1C(=O)N1CC(C)c2[nH]cnc2C1c1nc2c(F)cccc2s1 (stereo not drawn) [listing 2 of 4 here]
65 | > 5 µM | CC1CN(C(=O)c2cnc(N3CCOCC3)o2)C(c2nc3ccccc3s2)c2nc[nH]c21 (stereo not drawn) [listing 2 of 4 here]
66 | > 5 µM | CC1CN(C(=O)c2cnco2)C(c2nc3c(F)cccc3s2)c2nc[nH]c21 (stereo not drawn) [listing 2 of 4 here]
67 | 1 to 5 µM | COCCc1ncc(C(=O)N2CC(C)c3[nH]cnc3C2c2nc3ccccc3s2)o1 (stereo not drawn)
68 | 1 to 5 µM | CC1CN(C(=O)c2nnc(C(C)(C)O)o2)C(c2nc3ccccc3s2)c2nc[nH]c21 (stereo not drawn) [listing 3 of 4 here]
69 | 1 to 5 µM | Cc1nc(C(C)(C)O)oc1C(=O)N1CC(C)c2[nH]cnc2C1c1nc2c(F)cccc2s1 (stereo not drawn) [listing 3 of 4 here]
70 | 1 to 5 µM | CC1CN(C(=O)c2cnc(N3CCOCC3)o2)C(c2nc3ccccc3s2)c2nc[nH]c21 (stereo not drawn) [listing 3 of 4 here]
71 | 1 to 5 µM | Cc1nc(-c2ccccn2)oc1C(=O)N1CC(C)c2[nH]cnc2C1c1nc2ccccc2s1 (stereo not drawn) [listing 2 of 3 here]
72 | 1 to 5 µM | CC1CN(C(=O)c2cnco2)C(c2nc3c(F)cccc3s2)c2nc[nH]c21 (stereo not drawn) [listing 3 of 4 here]
73 | 1 to 5 µM | CC1CN(C(=O)c2cnn3cc(CN(C)C)ccc23)C(c2nc3ccccc3s2)c2nc[nH]c21 (stereo not drawn) [listing 2 of 3 here]
74 | > 5 µM | CC1CN(C(=O)c2cnc(CN(C)C)o2)C(c2nc3ccccc3s2)c2nc[nH]c21 (stereo not drawn)
75 | 1 to 5 µM | Cc1nnc(C(=O)N2CC(C)c3[nH]cnc3C2c2nc3ccccc3s2)o1 (stereo not drawn) [listing 3 of 3 here]
76 | 1 to 5 µM | CC1CN(C(=O)c2nnc(C(C)(C)O)o2)C(c2nc3ccccc3s2)c2nc[nH]c21 (stereo not drawn) [listing 4 of 4 here]
77 | 1 to 5 µM | Cc1nc(C(C)(C)O)oc1C(=O)N1CC(C)c2[nH]cnc2C1c1nc2c(F)cccc2s1 (stereo not drawn) [listing 4 of 4 here]
78 | 1 to 5 µM | CC1CN(C(=O)c2cnc(N3CCOCC3)o2)C(c2nc3ccccc3s2)c2nc[nH]c21 (stereo not drawn) [listing 4 of 4 here]
79 | 1 to 5 µM | Cc1nc(-c2ccccn2)oc1C(=O)N1CC(C)c2[nH]cnc2C1c1nc2ccccc2s1 (stereo not drawn) [listing 3 of 3 here]
80 | > 5 µM | CC1CN(C(=O)c2cnco2)C(c2nc3c(F)cccc3s2)c2nc[nH]c21 (stereo not drawn) [listing 4 of 4 here]
81 | > 5 µM | CC1CN(C(=O)c2cnn3cc(CN(C)C)ccc23)C(c2nc3ccccc3s2)c2nc[nH]c21 (stereo not drawn) [listing 3 of 3 here]
